# Target: T1, androgen receptor (AR) (Homo sapiens, UniProt P10275, T878A)
# T1 construct: endogenous in cells; host or cells: LNCaP
# T1 sequence (P10275 1-920 T878A): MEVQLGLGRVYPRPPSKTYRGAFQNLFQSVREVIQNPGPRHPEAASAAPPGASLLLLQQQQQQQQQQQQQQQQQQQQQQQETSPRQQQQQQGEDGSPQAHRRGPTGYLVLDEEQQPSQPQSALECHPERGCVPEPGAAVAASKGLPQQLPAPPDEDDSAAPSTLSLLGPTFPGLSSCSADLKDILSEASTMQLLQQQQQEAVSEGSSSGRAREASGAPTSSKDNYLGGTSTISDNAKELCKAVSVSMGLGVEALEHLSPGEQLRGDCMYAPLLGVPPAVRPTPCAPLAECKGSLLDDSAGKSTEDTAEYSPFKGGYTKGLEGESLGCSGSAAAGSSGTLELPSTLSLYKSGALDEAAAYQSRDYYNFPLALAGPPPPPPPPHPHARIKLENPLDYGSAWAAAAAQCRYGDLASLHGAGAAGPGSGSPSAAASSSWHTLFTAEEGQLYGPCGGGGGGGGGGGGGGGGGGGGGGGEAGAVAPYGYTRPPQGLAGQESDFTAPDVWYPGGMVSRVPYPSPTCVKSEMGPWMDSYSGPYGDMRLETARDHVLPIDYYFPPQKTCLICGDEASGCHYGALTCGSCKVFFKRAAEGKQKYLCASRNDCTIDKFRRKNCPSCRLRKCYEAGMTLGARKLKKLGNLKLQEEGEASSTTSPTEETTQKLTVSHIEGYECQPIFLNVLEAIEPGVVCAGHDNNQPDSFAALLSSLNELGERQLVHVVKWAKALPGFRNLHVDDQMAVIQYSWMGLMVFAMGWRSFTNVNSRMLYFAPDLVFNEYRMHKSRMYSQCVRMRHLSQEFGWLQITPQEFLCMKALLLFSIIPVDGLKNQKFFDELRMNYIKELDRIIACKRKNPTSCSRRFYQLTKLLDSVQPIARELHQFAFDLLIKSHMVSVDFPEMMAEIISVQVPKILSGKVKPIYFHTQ
# Assay: Androgen-induced PSA-luciferase assay, Luciferase Assay A (LNCaP transiently transfected with PSA (6.1 kb)-luciferase reporter)
# Format: cell-based
# Conditions: LNCaP cells, 1 h pretreatment, R1881 (1 nM) 24 h, read-out: PSA-Luc IC50 Range
# Protocol: The PSA (6.1 kb)-luciferase reporter contains functional AREs (androgen response elements) to which AR binds in response to androgen to induce luciferase activity. LNCaP cells were transiently transfected with the PSA (6.1 kb)-luciferase reporter for 24 h, and then pretreated with vehicle (DMSO) or indicated concentration of representative compounds for one hour prior to the addition of synthetic androgen, R1881 (1 nM). After 24 h of incubation with R1881, the cells were harvested, and relative luciferase activities were determined (FIG. 1). To determine the IC50, treatments were normalized to vehicle control activity induced by R1881 (Table 2).
# Luciferase Assay A: Cells were lysed using Passive Lysis Buffer (Promega) and then collected into V-bottom 96-well tissue culture plates. Lysates were centrifuged at 4° C. for 5 minutes at 3000 rpm. To measure luminescence of LNCaP cell lysates the Firefly Luciferase Assay System (Promega) was employed, according to manufacturer's protocol. Relative luminescence units (RLU) in cell lysates were detected for 10 seconds using Promega GloMax-Multi Detection Luminometer (Promega). Values were normalized to protein content. GraphPad Prism graphing software was used to calculate IC50 values. Luciferase Assay A was run for all compounds in Table 2 unless otherwise noted below.
# Statistical analyses were performed using GraphPad Prism (Version 6.01 for Windows; La Jolla, CA, USA). Comparisons between treatment and control groups were compared using Two-Way ANOVA with post-hoc Dunnett's and Tukey's tests. Differences were considered statistically significant at P values less than 0.05.
row,IC50,SMILES
1,> 2000 nM,CS(=O)(=O)Nc1cnc2cc(-c3ccc(Nc4cc(Cl)c(OCCCl)c(C#N)c4)cc3)ccc2n1 [Compound A27]
2,500 to 2000 nM,CC(C)(c1ccc(OCc2ccnc(NS(=O)(=O)c3ccsc3)n2)cc1)c1cc(Cl)c(OCCCl)c(C#N)c1 [Compound A101]
3,> 2000 nM,CC(C)(C)OC(=O)N1CCN(c2cc(COc3ccc(C(C)(C)c4cc(Cl)c(OCCCl)c(C#N)c4)cc3)nc(NS(C)(=O)=O)n2)CC1 [Compound A117]
4,500 to 2000 nM,CC(C)(c1ccc(OCc2ccnc(NS(=O)(=O)c3ccoc3)n2)cc1)c1cc(Cl)c(OCCCl)c(C#N)c1 [Compound A103]
5,> 2000 nM,CC(C)(c1ccc(-c2ccnc(N3CC(NS(C)(=O)=O)C3)n2)cc1)c1cc(Cl)c(OCCCl)c(C#N)c1 [Compound A40]
6,500 to 2000 nM,CC(C)(c1ccc(OCc2ccnc(NS(C)(=O)=O)n2)cc1)c1cc(Cl)c(N2CC3CC2CO3)c(C#N)c1 (stereo not drawn) [Compound A149]
7,500 to 2000 nM,CS(=O)(=O)Nc1nc2ccc(-c3ccc(Oc4cc(Cl)c(OCCCl)c(C#N)c4)cc3)cc2o1 [Compound A61]
8,> 2000 nM,CS(=O)(=O)Nc1nccc(COc2ccc(Oc3cc(Cl)c(OCCCl)c(C#N)c3)cc2)n1 [Compound A122]
9,> 2000 nM,CC(C)(c1ccc(-c2cnc(NC3CCN(S(C)(=O)=O)CC3)nc2)cc1)c1cc(Cl)c(OCCCl)c(C#N)c1 [Compound A151]
10,> 2000 nM,CS(=O)(=O)Nc1cnc2cc(C3CCN(Cc4cc(Cl)c(OCCCl)c(C#N)c4)CC3)ccc2n1 [Compound A93]
11,500 to 2000 nM,CC(C)(c1ccc(-c2cnc(N3CCC34CN(S(C)(=O)=O)C4)nc2)cc1)c1cc(Cl)c(OCCCl)c(C#N)c1 [Compound A138]
12,500 to 2000 nM,CC(C)(c1ccc(OCc2ccnc(NS(C)(=O)=O)n2)cc1)c1cc(Cl)c(OC2CCC2)c(C#N)c1 [Compound A52]
13,> 2000 nM,CS(=O)(=O)Nc1nccc2nc(-c3ccc(Oc4cc(Cl)c(OCCCl)c(C#N)c4)cc3)ccc12 [Compound A66]
14,500 to 2000 nM,CC(C)(c1ccc(OCc2ccnc(-n3cnc(S(N)(=O)=O)n3)n2)cc1)c1cc(Cl)c(OCCCl)c(C#N)c1 [Compound A108]
15,500 to 2000 nM,CC(C)(c1ccc(-c2cnc(N3CC(CNS(C)(=O)=O)C3)nc2)cc1)c1cc(Cl)c(OCCCl)c(C#N)c1 [Compound A95]
16,500 to 2000 nM,CC(C)(c1ccc(OCc2ccnc(-n3cnc(S(N)(=O)=O)c3)n2)cc1)c1cc(Cl)c(OCCCl)c(C#N)c1 [Compound A106]
17,> 2000 nM,CC(C)(c1cc(Cl)c(OCCCl)c(C#N)c1)c1ccc(OCc2ccnc(NS(C)(=O)=O)n2)c(CN)c1 [Compound A111]
18,500 to 2000 nM,CC(C)(c1ccc(-c2ccc(N3CC(NS(C)(=O)=O)C3)nn2)cc1)c1cc(Cl)c(OCCCl)c(C#N)c1 [Compound A69]
19,> 2000 nM,CC(C)(c1ccc(OCc2ccnc(NS(C)(=O)=O)n2)cc1)c1cc(Cl)c(OCCN2C(=O)CCCC2=O)c(C#N)c1 [Compound A180]
20,500 to 2000 nM,CC(C)(C)OC(=O)N1CCN(Cc2cc(C(C)(C)c3cc(Cl)c(OCCCl)c(C#N)c3)ccc2OCc2ccnc(NS(C)(=O)=O)n2)CC1 [Compound A112]
21,< 500 nM,CC(C)(c1ccc(-c2cnc(N3CC(NS(C)(=O)=O)C3)c(F)c2)cc1)c1cc(Cl)c(OCCCl)c(C#N)c1 [Compound A50]
22,> 2000 nM,CC(C)(c1ccc(CN2CC(NS(C)(=O)=O)CC(F)(F)C2)cc1)c1cc(Cl)c(OCCCl)c(C#N)c1 (stereo not drawn) [Compound A46]
23,500 to 2000 nM,CC(C)(c1ccc(OC[C@H]2C[C@H](CNS(C)(=O)=O)C2)cc1)c1cc(Cl)c(OCCCl)c(C#N)c1 [Compound A64]
24,> 2000 nM,C=COc1c(Cl)cc(C(C)(C)c2ccc(COc3ccnc(NS(C)(=O)=O)n3)cc2)cc1C#N [Compound A102]
25,500 to 2000 nM,CC(C)(c1ccc(OC2CC3(C2)CN(S(C)(=O)=O)C3)cc1)c1cc(Cl)c(N2CCOCC2)c(C#N)c1 [Compound A140]
26,> 2000 nM,CC(C)(c1ccc(CCN2CC(NS(C)(=O)=O)C2)cc1)c1cc(Cl)c(OCCCl)c(C#N)c1 [Compound A20]
27,> 2000 nM,CS(=O)(=O)Nc1nccc(COc2ccc(C(=O)c3cc(Cl)c(OCCCl)c(C#N)c3)cc2)n1 [Compound A128]

# — patent publication US20230373934A1, “ANDROGEN RECEPTOR MODULATORS AND METHODS FOR THEIR USE” (ESSA Pharma, Inc., priority 2022, published 2023)
